Patent US20240024273A1, “TOPICAL ADMINISTRATION OF 2-(DIETHYLAMINO)ETHYL 2-(4-ISOBUTYLPHENYL)PROPRIONATE FOR TREATMENT OF DISEASES” (TECHFIELDS PHARMA CO., LTD., priority 2020, published 2024)

System: Subjects with Osteoarthritis of the Knee
Test: Second Phase 2 study: safety (treatment-emergent adverse events)
Type: in vivo, human
Excerpt: Safety assessments will be performed at each visit and will include assessment of AEs, vital signs (blood pressure, pulse rate, and oral temperature), clinical laboratories, physical examination, skin irritation, and electrocardiograms (ECGs) as indicated in the study flow chart, Table 47.
Safety assessments will include AEs, vital signs (blood pressures, pulse rate, and oral temperature), clinical laboratories, physical examination, skin irritation, and ECGs at various time points during the study as indicated in the study flow chart.
Adverse events of interest include: local skin reactions around the treated knee(s), upper stomach pain, GI bleeding, serious cardiovascular side effects (e.g., thrombotic events, myocardial infarction, or stroke), jaundice, elevated liver function tests, and nausea.
Safety analyses will be conducted on the SAS. Safety parameters will be listed and summarized using standard descriptive statistics, as appropriate. No formal statistical analyses are planned.

## CCN(CC)CCOC(=O)C(C)c1ccc(CC(C)C)cc1 (centres unmarked) [2-(diethylamino)ethyl 2-(4-isobutylphenyl)propionate]
8.75 mg/knee, BID, N = 70
  Neck Pain: number of adverse events: 3(%)[3]
  Neck Pain: subjects with adverse events, number (percentage): 3(%)[3]
  Nervous System Disorders: number of adverse events: 8
  Nervous System Disorders: subjects with adverse events, number (percentage): 7(10.0%)
  Oropharyngeal Pain: number of adverse events: 2
  Oropharyngeal Pain: subjects with adverse events, number (percentage): 2(1.4%)
  Pain in Extremity: number of adverse events: 1(%)[1]
  Pain in Extremity: subjects with adverse events, number (percentage): 1(%)[1]
  Respiratory, Thoracic and Mediastinal Disorders: number of adverse events: 3
  Respiratory, Thoracic and Mediastinal Disorders: subjects with adverse events, number (percentage): 3(4.3%)
  Skin Irritation: number of adverse events: 1
  Skin Irritation: percentage of subjects with adverse events: 1.4%
  Skin Irritation: subjects with adverse events: 1
  Skin and Subcutaneous Tissue Disorders: number of adverse events: 1
  Skin and Subcutaneous Tissue Disorders: percentage of subjects with adverse events: 1.4%
  Skin and Subcutaneous Tissue Disorders: subjects with adverse events: 1
  Subjects with Positive Fecal Occult Blood Test: 5
  Subjects with Positive Fecal Occult Blood Test, percentage: 7.1%
  Throat Irritation: number of adverse events: 1
  Throat Irritation: subjects with adverse events, number (percentage): 1(1.4%)
  Thrombosis: number of adverse events: 1
  Thrombosis: percentage of subjects with adverse events: 1.4%
  Thrombosis: subjects with adverse events: 1
  Tooth Infection: number of adverse events: 1
  Tooth Infection: subjects with adverse events, number (percentage): 1(1.4%)
  Toothache: number of adverse events: 1
  Toothache: percentage of subjects with adverse events: 1.4%
  Toothache: subjects with adverse events: 1
  Transaminases Increased: number of adverse events: 1
  Transaminases Increased: percentage of subjects with adverse events: 1.4%
  Transaminases Increased: subjects with adverse events: 1
  Upper Respiratory Tract Infection: number of adverse events: 12
  Upper Respiratory Tract Infection: subjects with adverse events, number (percentage): 12(15.7%)
  Urinary Tract Infection: number of adverse events: 6
  Urinary Tract Infection: subjects with adverse events, number (percentage): 6(8.6%)
  Vascular Disorders: number of adverse events: 2
  Vascular Disorders: percentage of subjects with adverse events: 2.9%
  Vascular Disorders: subjects with adverse events: 2
  Vertigo: number of adverse events: 2(%)[2]
  Vertigo: subjects with adverse events: 2(%)[2]
  White Blood Cell Count Decreased: number of adverse events: 2
  White Blood Cell Count Decreased: percentage of subjects with adverse events: 2.9%
  White Blood Cell Count Decreased: subjects with adverse events: 2
17.5 mg/knee (BID)
  GI disorders incidence rate: 5.7%
  incidence rate of AEs possibly, probably, or definitely related to study drug: 35.7%
  infections and infestations incidence rate: 18.6%
  positive fecal occult blood test incidence rate: 7.1%
17.5 mg/knee, BID, N = 70
  Abdominal Discomfort: number of adverse events: 1
  Abdominal Discomfort: percentage of subjects with adverse events: 1.4%
  Abdominal Discomfort: subjects with adverse events: 1
  Abdominal Pain Upper: number of adverse events: 2
  Abdominal Pain Upper: percentage of subjects with adverse events: 1.4%
  Abdominal Pain Upper: subjects with adverse events: 1
  Administration Site Conditions: number of adverse events: 4
  Administration Site Conditions: percentage of subjects with adverse events: 5.7%
  Administration Site Conditions: subjects with adverse events: 4
  Application Site Irritation: number of adverse events: 1
  Application Site Irritation: percentage of subjects with adverse events: 1.4%
  Application Site Irritation: subjects with adverse events: 1
  Application Site Rash: number of adverse events: 3
  Application Site Rash: percentage of subjects with adverse events: 4.3%
  Application Site Rash: subjects with adverse events: 3
